{"source": "paper PMC6767909", "about": "(Journal of medicinal chemistry, 2019)", "key": {"human GIVA cPLA2": {"target": "T1, human GIVA cPLA2 (Homo sapiens, UniProt P47712)", "T1 sequence (P47712 1-749)": "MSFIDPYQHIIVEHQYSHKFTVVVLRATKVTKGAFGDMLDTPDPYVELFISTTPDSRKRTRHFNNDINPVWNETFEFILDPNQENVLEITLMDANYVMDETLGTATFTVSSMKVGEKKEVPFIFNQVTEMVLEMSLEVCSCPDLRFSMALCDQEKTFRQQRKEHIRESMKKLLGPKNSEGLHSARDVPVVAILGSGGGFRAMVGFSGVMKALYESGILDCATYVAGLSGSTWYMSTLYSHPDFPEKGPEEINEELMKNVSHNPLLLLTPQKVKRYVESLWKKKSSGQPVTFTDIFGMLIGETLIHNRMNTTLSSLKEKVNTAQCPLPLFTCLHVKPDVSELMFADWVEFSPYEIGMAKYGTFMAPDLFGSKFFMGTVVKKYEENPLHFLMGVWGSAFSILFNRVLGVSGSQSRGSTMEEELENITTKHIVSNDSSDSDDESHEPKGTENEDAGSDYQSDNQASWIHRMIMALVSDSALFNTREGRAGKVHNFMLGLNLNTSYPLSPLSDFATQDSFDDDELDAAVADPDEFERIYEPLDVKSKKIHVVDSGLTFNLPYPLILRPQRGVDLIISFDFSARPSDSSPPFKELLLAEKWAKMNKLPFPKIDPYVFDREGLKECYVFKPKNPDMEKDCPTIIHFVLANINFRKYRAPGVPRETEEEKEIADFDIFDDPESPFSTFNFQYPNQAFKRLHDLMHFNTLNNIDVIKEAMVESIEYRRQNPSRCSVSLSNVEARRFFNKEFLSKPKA", "experiment": "lipidomics-based mixed micelle assay, GIVA cPLA2", "assay_type": "biochemical", "conditions": "for GIVA cPLA2 XI(50): separated trans/cis diastereomers, lipidomics-based assay"}, "[1]": {"target": "T2, recombinant human GVIA iPLA2 (Homo sapiens, UniProt O60733)", "T2 sequence (O60733 1-806)": "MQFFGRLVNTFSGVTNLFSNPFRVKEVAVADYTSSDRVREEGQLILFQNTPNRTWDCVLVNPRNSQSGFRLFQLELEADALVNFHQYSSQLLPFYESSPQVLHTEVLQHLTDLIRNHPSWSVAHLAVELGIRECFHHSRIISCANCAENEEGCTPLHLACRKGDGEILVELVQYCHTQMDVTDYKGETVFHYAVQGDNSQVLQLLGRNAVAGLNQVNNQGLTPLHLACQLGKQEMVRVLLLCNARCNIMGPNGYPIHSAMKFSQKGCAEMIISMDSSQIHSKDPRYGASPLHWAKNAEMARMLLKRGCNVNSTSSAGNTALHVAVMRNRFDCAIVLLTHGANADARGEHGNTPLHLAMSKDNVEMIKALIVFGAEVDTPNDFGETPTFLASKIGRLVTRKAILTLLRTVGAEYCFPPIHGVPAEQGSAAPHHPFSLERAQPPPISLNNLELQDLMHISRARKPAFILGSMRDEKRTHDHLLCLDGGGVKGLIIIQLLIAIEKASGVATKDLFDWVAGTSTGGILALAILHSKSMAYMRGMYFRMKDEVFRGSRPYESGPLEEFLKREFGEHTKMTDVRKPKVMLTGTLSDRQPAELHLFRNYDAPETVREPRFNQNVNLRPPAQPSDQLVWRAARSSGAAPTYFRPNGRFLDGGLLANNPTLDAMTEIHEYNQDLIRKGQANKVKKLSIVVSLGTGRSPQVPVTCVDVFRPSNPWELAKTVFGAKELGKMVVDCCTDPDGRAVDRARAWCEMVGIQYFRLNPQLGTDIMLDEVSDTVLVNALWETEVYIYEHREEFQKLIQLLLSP", "experiment": "lipidomics-based mixed micelle assay, GVIA iPLA2", "assay_type": "biochemical"}, "INS-1 cells": {"test_system": "INS-1 cells", "assay_type": "cell-based"}, "[2]": {"target": "T2, recombinant human GVIA iPLA2", "conditions": "cited from earlier work; for GVIA iPLA2 XI(50): radioactivity-based assay"}, "β-cell": {"test_system": "β-cell", "conditions": "cited from earlier work"}}, "note": "Where two headings read alike, the source gives them in different places.", "data": [{"smiles": "CCC[C@@H]1OC(=O)[C@@H]1CCCc1ccccc1", "note": "(racemic) [cis-9d, cis-(±)-3-(3-Phenylpropyl)-4-propyloxetan-2-one]", "values": [{"measurement": "IC50", "setting": "human GIVA cPLA2", "result": 950, "unit": "nM"}, {"measurement": "GIVA cPLA2 XI(50)", "setting": "human GIVA cPLA2", "result": 0.0019, "unit": "mole fraction"}]}, {"smiles": "CCC[C@@H]1OC(=O)[C@@H]1CCCc1ccc(OC)cc1", "note": "(racemic) [cis-9f, cis-(±)-3-(3-(4-Methoxyphenyl)propyl)-4-propyloxetan-2-one]", "values": [{"measurement": "IC50", "setting": "human GIVA cPLA2", "result": 20, "unit": "nM"}, {"measurement": "times more potent for GIVA cPLA2 than for GVIA iPLA2", "setting": "human GIVA cPLA2; GIVA cPLA2 over GVIA iPLA2", "result": "~1000", "unit": "times"}, {"measurement": "GIVA cPLA2 XI(50)", "setting": "human GIVA cPLA2", "result": 0.00004, "unit": "mole fraction"}, {"measurement": "IC50", "setting": "[1]", "result": 20000, "unit": "nM"}]}, {"smiles": "CCC[C@@H]1OC(=O)[C@@H]1CCCCc1ccc2ccccc2c1", "note": "(racemic) [cis-9j, cis-(±)-3-(4-(Naphthalen-2-yl)butyl)-4-propyloxetan-2-one]", "values": [{"measurement": "IC50", "setting": "[1]", "result": 1000, "unit": "nM"}]}, {"smiles": "CCC[C@H]1OC(=O)[C@@H]1CCCc1ccccc1", "note": "(racemic) [trans-9d, trans-(±)-3-(3-Phenylpropyl)-4-propyloxetan-2-one]", "values": [{"measurement": "IC50", "setting": "[1]", "result": 95, "unit": "nM"}]}, {"smiles": "CCC[C@H]1OC(=O)[C@@H]1CCCc1ccc2ccccc2c1", "note": "(racemic) [trans-9e, trans-(±)-3-(3-(Naphthalen-2-yl)propyl)-4-propyloxetan-2-one]", "values": [{"measurement": "IC50", "setting": "[1]", "result": 150, "unit": "nM"}]}, {"smiles": "CCC[C@H]1OC(=O)[C@@H]1CCCc1ccc(OC)cc1", "note": "(racemic) [trans-9f, trans-(±)-3-(3-(4-Methoxyphenyl)propyl)-4-propyloxetan-2-one]", "values": [{"measurement": "IC50", "setting": "[1]", "result": 95, "unit": "nM"}]}, {"smiles": "CCC[C@H]1OC(=O)[C@@H]1CCCCc1ccccc1", "note": "(racemic) [trans-9k, trans-(±)-3-(4-Phenylbutyl)-4-propyloxetan-2-one]", "values": [{"measurement": "GIVA cPLA2 XI(50)", "setting": "human GIVA cPLA2", "result": 0.042, "unit": "mole fraction"}, {"measurement": "inhibition (decrease) of cytokine-induced β-cell apoptosis", "setting": "INS-1 cells; 0.10 μM, co-treatment with IL-1β + IFNγ, 16 h", "result": "minimal and non-significant effect"}, {"measurement": "cytotoxicity on continuous exposure, compound alone", "setting": "INS-1 cells; 0.10 or 1.0 μM, no cytokines", "result": "not cytotoxic"}, {"measurement": "times more active against GVIA iPLA2 than GIVA cPLA2 (selectivity)", "setting": "[1]; GVIA iPLA2 over GIVA cPLA2", "result": "22,000 times"}, {"measurement": "potency on GVIA iPLA2 relative to FKGK18", "setting": "[1]; compared with fluoroketone FKGK18", "result": "a hundred times more potent"}]}, {"smiles": "O=C(CCCCc1ccccc1)C(F)(F)C(F)(F)F", "note": "[2a]", "values": [{"measurement": "GVIA iPLA2 XI(50)", "setting": "[2]; listed as FKGK11", "result": 0.0014, "unit": "mole fraction"}]}, {"smiles": "COc1ccc(CCCCC(=O)C(F)(F)C(F)(F)F)cc1", "note": "[2b]", "values": [{"measurement": "GVIA iPLA2 XI(50)", "setting": "[2]; listed as GK187", "result": 0.0001, "unit": "mole fraction"}]}, {"smiles": "O=C(CCCCc1ccc2ccccc2c1)C(F)(F)F", "note": "[compound 3]", "values": [{"measurement": "inhibition of β-cell apoptosis", "setting": "β-cell", "result": "able to inhibit β-cell apoptosis"}, {"measurement": "times more potent for GVIA iPLA2 than for GIVA cPLA2", "setting": "[2]", "result": 195, "unit": "times"}, {"measurement": "times more potent for GVIA iPLA2 than for GV sPLA2", "setting": "[2]", "result": "> 455", "unit": "times"}]}, {"smiles": "COc1ccc(CCSCC(=O)c2noc(C(C)(C)C)n2)cc1", "note": "[compound 4]", "values": [{"measurement": "GVIA iPLA2 XI(50)", "setting": "[2]", "result": 0.0057, "unit": "mole fraction"}]}]}
